PubChem BioAssay AID248 (DTP/NCI, 2004)
“And” between values parts separate entries of the source, which are not always exact repeats. Equal entries are not always repeated. Inconclusive results and toxic doses are left out. No stated cut-off is given here; in the data, active means T/C of 150% or more; inactive means T/C below 125%.

System: L1210 leukemia ip in BDF1 mice, survival T/C
Test: NCI In Vivo Anticancer Drug Screen. Data for tumor model L1210 Leukemia (intraperitoneal) in B6D2F1 (BDF1) mice
Conditions: endpoint: mean survival time, higher = longer survival
How it was run: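 Mice bearing the transplanted tumor received compound or vehicle. Survival of the treated group was divided by that of the vehicle-treated control group to give the ratio.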

[1] = dose: 100.0 mg/kg/injection, schedule: Q01DX001 (ip), vehicle: saline
[2] = dose: 200.0 mg/kg/injection, schedule: Q01DX001 (ip), vehicle: saline
[3] = dose: 400.0 mg/kg/injection, schedule: Q01DX001 (ip), vehicle: saline
[4] = dose: 100.0 mg/kg/injection, schedule: Q01DX009 (ip), vehicle: Klucel (hydroxypropylcellulose) (HPC)
[5] = dose: 200.0 mg/kg/injection, schedule: Q01DX009 (ip), vehicle: Klucel (hydroxypropylcellulose) (HPC)
[6] = dose: 400.0 mg/kg/injection, schedule: Q01DX009 (ip), vehicle: Klucel (hydroxypropylcellulose) (HPC)
[7] = dose: 6.25 mg/kg/injection, schedule: Q01DX009 (ip), vehicle: saline with Tween-80
[8] = dose: 12.5 mg/kg/injection, schedule: Q01DX009 (ip), vehicle: saline with Tween-80
[9] = dose: 25.0 mg/kg/injection, schedule: Q01DX009 (ip), vehicle: saline with Tween-80
[10] = dose: 100.0 mg/kg/injection, schedule: Q04DX003 (ip), vehicle: saline with Tween-80
[11] = dose: 200.0 mg/kg/injection, schedule: Q04DX003 (ip), vehicle: saline with Tween-80
[12] = dose: 400.0 mg/kg/injection, schedule: Q04DX003 (ip), vehicle: saline with Tween-80
[13] = dose: 100.0 mg/kg/injection, schedule: Q01DX001 (ip), vehicle: carboxymethylcellulose (CMC)
[14] = dose: 200.0 mg/kg/injection, schedule: Q01DX001 (ip), vehicle: carboxymethylcellulose (CMC)
[15] = dose: 400.0 mg/kg/injection, schedule: Q01DX001 (ip), vehicle: carboxymethylcellulose (CMC)
[16] = dose: 100.0 mg/kg/injection, schedule: Q01DX001 (ip), vehicle: Klucel (hydroxypropylcellulose) (HPC)
[17] = dose: 100.0 mg/kg/injection, schedule: Q04DX003 (ip), vehicle: Klucel (hydroxypropylcellulose) (HPC)
[18] = dose: 200.0 mg/kg/injection, schedule: Q01DX001 (ip), vehicle: Klucel (hydroxypropylcellulose) (HPC)
[19] = dose: 200.0 mg/kg/injection, schedule: Q04DX003 (ip), vehicle: Klucel (hydroxypropylcellulose) (HPC)
[20] = dose: 400.0 mg/kg/injection, schedule: Q01DX001 (ip), vehicle: Klucel (hydroxypropylcellulose) (HPC)
[21] = dose: 400.0 mg/kg/injection, schedule: Q04DX003 (ip), vehicle: Klucel (hydroxypropylcellulose) (HPC)

Measured: T/C

OC(c1ccc(F)cc1)(c1ccc(F)cc1)C1CC1
inactive: dose: 100.0 mg/kg/injection, schedule: Q01DX001 (ip), vehicle: saline with Tween-80 106 % of control | dose: 200.0 mg/kg/injection, schedule: Q01DX001 (ip), vehicle: saline with Tween-80 105 % of control

CN(C)S(=O)(=O)c1ccc(NC(=O)OCc2ccccc2)cc1
inactive: [1] 96 % of control | [2] 94 % of control | [3] 92 % of control

CC(=O)Nc1ccc(/C=N/Nc2ccccc2)cc1
inactive: [4] 101 % of control | [5] 103 % of control | [6] 101 % of control

CCCCCSB(SCCCCC)c1ccccc1
inactive: [1] 89 % of control | [2] 89 % of control | [3] 92 % of control

Cc1ccccc1OCC(=O)Nc1ccc(-c2ccc(NC(=O)COc3ccccc3C)cc2)cc1
inactive: dose: 100.0 mg/kg/injection, schedule: Q04DX002 (ip), vehicle: gum acacia 92 % of control | dose: 200.0 mg/kg/injection, schedule: Q04DX002 (ip), vehicle: gum acacia 95 % of control | dose: 400.0 mg/kg/injection, schedule: Q04DX002 (ip), vehicle: gum acacia 100 % of control

CCOP(=O)(OCC)OC(=O)N(CC)CC
inactive: dose: 100.0 mg/kg/injection, schedule: Q04DX002 (ip), vehicle: saline 112 % of control | dose: 200.0 mg/kg/injection, schedule: Q04DX002 (ip), vehicle: saline 120 % of control

O=C(O)c1ccc(N=Nc2ncc[nH]2)cc1
inactive: [7] 92 % of control | [8] 96 % of control | [9] 96 % of control | dose: 50.0 mg/kg/injection, schedule: Q01DX009 (ip), vehicle: saline with Tween-80 87 % of control

CC(=O)Cc1ccc(C(=O)C(C)Cc2ccc(C(C)=O)cc2)cc1 (stereo not given)
inactive: [10] 90 % of control | [11] 110 % of control | [12] 92 % of control

Cc1ccc(N2C(=O)CC(c3ccccc3)C2C(=O)O)cc1 (stereo not given)
inactive: dose: 100.0 mg/kg/injection, schedule: Q04DX002 (ip), vehicle: Klucel (hydroxypropylcellulose) (HPC) 100 % of control | dose: 200.0 mg/kg/injection, schedule: Q04DX002 (ip), vehicle: Klucel (hydroxypropylcellulose) (HPC) 103 % of control | dose: 400.0 mg/kg/injection, schedule: Q04DX002 (ip), vehicle: Klucel (hydroxypropylcellulose) (HPC) 103 % of control

O=[N+]([O-])c1ccc2c(c1)P(=O)(O)c1cc([N+](=O)[O-])ccc1-2
inactive: dose: 75.0 mg/kg/injection, schedule: Q01DX001 (ip), vehicle: saline 96 % of control | dose: 150.0 mg/kg/injection, schedule: Q01DX001 (ip), vehicle: saline 95 % of control | dose: 300.0 mg/kg/injection, schedule: Q01DX001 (ip), vehicle: saline 98 % of control

Cc1ccc(S(=O)(=O)OCC2OCOC2C2OCOC2COS(=O)(=O)c2ccc(C)cc2)cc1 (stereo not given)
inactive: dose: 56.25 mg/kg/injection, schedule: Q01DX009 (ip), vehicle: carboxymethylcellulose (CMC) 95 % of control | [13] 95 % of control | dose: 112.5 mg/kg/injection, schedule: Q01DX009 (ip), vehicle: carboxymethylcellulose (CMC) 89 % of control | [14] 96 % of control | dose: 225.0 mg/kg/injection, schedule: Q01DX009 (ip), vehicle: carboxymethylcellulose (CMC) 87 % of control | [15] 90 % of control

c1cc[c]([Sn]([c]2ccccc2)([CH]2CCCCC2)[CH]2CCCCC2)cc1
inactive: dose: 75.0 mg/kg/injection, schedule: Q04DX002 (ip), vehicle: gum acacia 96 % of control | dose: 150.0 mg/kg/injection, schedule: Q04DX002 (ip), vehicle: gum acacia 101 % of control | dose: 300.0 mg/kg/injection, schedule: Q04DX002 (ip), vehicle: gum acacia 96 % of control

O=C(NC(=O)C(Cl)Cl)Nc1cccc2c1Cc1ccccc1-2
inactive: dose: 50.0 mg/kg/injection, schedule: Q04DX003 (ip), vehicle: Klucel (hydroxypropylcellulose) (HPC) 105 % of control | [16] 100 % of control | [4] 98 % of control | [17] 96 % of control and 101 % of control | [18] 89 % of control | [5] 93 % of control | [19] 100 % of control | [20] 94 % of control | [6] 93 % of control | [21] 90 % of control and 92 % of control

O=NN1CCCCC1C(=O)O (stereo not given)
inactive: [1] 98 % of control | [2] 102 % of control

O=C(O)C(Cl)(c1ccccc1)c1ccccc1
inactive: dose: 75.0 mg/kg/injection, schedule: Q01DX001 (ip), vehicle: other 94 % of control | dose: 150.0 mg/kg/injection, schedule: Q01DX001 (ip), vehicle: other 101 % of control | dose: 300.0 mg/kg/injection, schedule: Q01DX001 (ip), vehicle: other 100 % of control

CCOC(=O)/C=C1\CCCc2ccc(Cl)cc21
inactive: dose: 50.0 mg/kg/injection, schedule: Q04DX002 (ip), vehicle: saline with Tween-80 111 % of control | dose: 100.0 mg/kg/injection, schedule: Q04DX002 (ip), vehicle: saline with Tween-80 101 % of control and 104 % of control | dose: 200.0 mg/kg/injection, schedule: Q04DX002 (ip), vehicle: saline with Tween-80 101 % of control | dose: 400.0 mg/kg/injection, schedule: Q04DX002 (ip), vehicle: saline with Tween-80 101 % of control

C=CC1CC=CCC1 (stereo not given)
inactive: [10] 98 % of control | [11] 97 % of control | [12] 102 % of control

CCCCCCCCCCCCCCCCCC(S(=O)(=O)CC)S(=O)(=O)CC
inactive: [17] 93 % of control | [19] 93 % of control | [21] 90 % of control

O=S1(=O)CCC/C1=C\c1ccccc1
inactive: [16] 121 % of control | [18] 103 % of control | [20] 101 % of control

CCC[CH2][Sn]1([CH2]CCC)[CH]=CCC=[C]1C
inactive: [7] 93 % of control | [8] 93 % of control | [9] 101 % of control and 89 % of control

c1ccc(C[n+]2ccc3ccccc3c2)cc1
inactive: [7] 95 % of control | dose: 6.25 mg/kg/injection, schedule: Q04DX003 (ip), vehicle: saline with Tween-80 107 % of control | dose: 10.0 mg/kg/injection, schedule: Q04DX003 (ip), vehicle: saline 105 % of control | [8] 103 % of control | dose: 12.5 mg/kg/injection, schedule: Q01DX009 (ip), vehicle: saline 112 % of control | dose: 12.5 mg/kg/injection, schedule: Q04DX003 (ip), vehicle: saline with Tween-80 98 % of control | dose: 20.0 mg/kg/injection, schedule: Q04DX003 (ip), vehicle: saline 92 % of control | [9] 111 % of control | dose: 25.0 mg/kg/injection, schedule: Q01DX009 (ip), vehicle: saline 107 % of control | dose: 25.0 mg/kg/injection, schedule: Q04DX003 (ip), vehicle: saline with Tween-80 91 % of control | dose: 40.0 mg/kg/injection, schedule: Q04DX003 (ip), vehicle: saline 94 % of control | dose: 50.0 mg/kg/injection, schedule: Q01DX009 (ip), vehicle: saline 104 % of control | dose: 50.0 mg/kg/injection, schedule: Q04DX003 (ip), vehicle: saline 95 % of control

Cc1ccc(C(=O)OCC(C)C)s1
inactive: [13] 98 % of control | [14] 101 % of control | [15] 98 % of control

C/C=C\C#N
inactive: dose: 100.0 mg/kg/injection, schedule: Q01DX009 (ip), vehicle: saline 106 % of control | dose: 100.0 mg/kg/injection, schedule: Q04DX003 (ip), vehicle: saline 103 % of control | dose: 200.0 mg/kg/injection, schedule: Q01DX009 (ip), vehicle: saline 108 % of control | dose: 200.0 mg/kg/injection, schedule: Q04DX003 (ip), vehicle: saline 113 % of control

CCC(C#N)(c1ccccc1)c1ccccc1
inactive: [4] 96 % of control | [17] 98 % of control | [5] 94 % of control | [19] 94 % of control | [6] 94 % of control | [21] 98 % of control
